From patent US20260314598A1, “THE USE OF FLORPYRAUXIFEN-BENZYL AS A SOYBEAN HARVEST AID” (CORTEVA AGRISCIENCE LLC, priority 2022, published 2026) come the findings set out here.

The structures appear in SMILES notation.

The experiment has as its system soybean plants. Put plainly: Field trial of soybean pre-harvest desiccation: visual defoliation after a single spray. The experiment is classed as in vivo. To be noted: for Percentage of defoliation (raw data): single application at R7.2, 100 L/ha spray; for Percentage of defoliation (Abbot's formula): single application at R7.2, adjusted to untreated. As to the method: Field trials were carried out to test the soybean desiccation efficacy of florpyrauxifen-benzyl at 5, 7.5, 10, 15 and 20 g a.i./ha. Soybean plants were sprayed at the R7.2 soybean growth stage.
[…] Herbicides were diluted in water and a single application for each rate (backpack sprayer) was performed employing 100 L/ha of spray solution. The percentage of visual defoliation was assessed at 3, 7 and 10 days after spray application. The significance of treatment effects was evaluated with F-approximate test (α=0.05) and least square means from different treatments were compared with Tukey's test, after adjusting the % defoliation using Abbott's formula (Abbott, W. S., 1925. A method of computing the effectiveness of an insecticide. J. Econ. Entomol. 18:265-267).

[1] abbreviates: 3 DAA, 370 g ai/ha, untreated 74.4.
Where [2] appears, read: 10 DAA, 370 g ai/ha, untreated 89.8.

Regarding `COc1c(Cl)ccc(-c2nc(C(=O)OCc3ccccc3)c(Cl)c(N)c2F)c1F` [Florpyrauxifen-benzyl, florpyrauxifen-benzyl], the “Percentage of defoliation (raw data)” value reads like this: (3 DAA, 5 g ai/ha, untreated 74.4) 78.8%; (3 DAA, 7.5 g ai/ha, untreated 74.4) 80.8%; (3 DAA, 10 g ai/ha, untreated 74.4) 81.3%; (3 DAA, 15 g ai/ha, untreated 74.4) 82.4%; (3 DAA, 20 g ai/ha, untreated 74.4) 84.3%; (7 DAA, 5 g ai/ha) 89.3%. Besides, the “Percentage of defoliation (raw data)” value (7 DAA, 7.5 g ai/ha) is listed as 90.8%; the “Percentage of defoliation (raw data)” value (7 DAA, 10 g ai/ha) was found to be 91.4%; the “Percentage of defoliation (raw data)” value (7 DAA, 15 g ai/ha) amounted to 93.0%; the “Percentage of defoliation (raw data)” value (7 DAA, 20 g ai/ha) worked out at 94.5%; the “Percentage of defoliation (raw data)” value (10 DAA, 5 g ai/ha, untreated 89.8) was determined as 97.1%; the “Percentage of defoliation (raw data)” value (10 DAA, 7.5 g ai/ha, untreated 89.8) worked out at 97.9%. Further, the “Percentage of defoliation (raw data)” value is 97.9% (10 DAA, 10 g ai/ha, untreated 89.8); 98.6% (10 DAA, 15 g ai/ha, untreated 89.8); 99.1% (10 DAA, 20 g ai/ha, untreated 89.8). Also, the “Percentage of defoliation (Abbot's formula)” value (“Percentage … (Abbot's formula)” for short) (3 DAA, 5 g ai/ha) is given as 7.4%; the “Percentage … (Abbot's formula)” value (3 DAA, 7.5 g ai/ha) was 10.0%; the “Percentage … (Abbot's formula)” value (3 DAA, 10 g ai/ha) is 10.7%; the “Percentage … (Abbot's formula)” value (3 DAA, 15 g ai/ha) is listed as 12.3%; the “Percentage … (Abbot's formula)” value (3 DAA, 20 g ai/ha) is listed as 15.3%; the “Percentage … (Abbot's formula)” value (7 DAA, 5 g ai/ha) was determined as 7.8%. Further, the “Percentage … (Abbot's formula)” value is given as 9.6% (7 DAA, 7.5 g ai/ha); 10.4% (7 DAA, 10 g ai/ha); 12.7% (7 DAA, 15 g ai/ha); 14.7% (7 DAA, 20 g ai/ha); 9.5% (10 DAA, 5 g ai/ha); 10.4% (10 DAA, 7.5 g ai/ha). Moreover, the “Percentage … (Abbot's formula)” value (10 DAA, 10 g ai/ha) is listed as 10.5%; the “Percentage … (Abbot's formula)” value (10 DAA, 15 g ai/ha) is 11.3%; the “Percentage … (Abbot's formula)” value (10 DAA, 20 g ai/ha) is 11.9%. The “percentage of defoliation compared to untreated plants, versus standards” value (7 DAA, rate not restated (15 and 20 g ai/ha in preceding sentence), Tukey's test) was “statistically equivalent to both ammonium-glufosinate and diquat”. Besides, the “percentage of defoliation compared to untreated plants, versus standard” value (15 and 20 g ai/ha, 3 DAA, F-approximate test (α=0.05), Tukey's test) is recorded as “statistically equivalent to ammonium-glufosinate”.

`c1cc[n+]2c(c1)-c1cccc[n+]1CC2` [Diquat, diquat]: the “Percentage of defoliation (raw data)” value amounted to 95.7% under setting [1]; 98.9% (7 DAA, 370 g ai/ha); 99.8% under setting [2]. In addition, the “Percentage … (Abbot's formula)” value (3 DAA, 370 g ai/ha) turned out to be 31.7%; the “Percentage … (Abbot's formula)” value (7 DAA, 370 g ai/ha) is 20.5%; the “Percentage … (Abbot's formula)” value (10 DAA, 370 g ai/ha) was 12.9%.

Consider `CP(=O)(O)CCC(N)C(=O)O` (centres unmarked) [Ammonium glufosinate, ammonium-glufosinate], for which the “Percentage of defoliation (raw data)” value stood at 84.9% under setting [1]; 93.9% (7 DAA, 370 g ai/ha); 98.1% under setting [2]. The “Percentage … (Abbot's formula)” value worked out at 16.4% (3 DAA, 370 g ai/ha); 13.9% (7 DAA, 370 g ai/ha); 10.8% (10 DAA, 370 g ai/ha).
